{"source": "ChEMBL document CHEMBL5346961", "about": "“Discovery and Evaluation of 3-Quinoxalin Urea Derivatives as Potent, Selective, and Orally Available ATM Inhibitors Combined with Chemotherapy for the Treatment of Cancer via Goal-Oriented Molecule Generation and Virtual Screening” (J Med Chem, 2023)", "key": {"[1]": {"assay": "Metabolic stability in human liver microsomes assessed as clearance at 1 uM in presence of NADPH-regenerating system by LC-MS/MS analysis", "format": "ADME, Microsome"}, "[2]": {"assay": "Metabolic stability in human liver microsomes assessed as half life at 1 uM in presence of NADPH-regenerating system by LC-MS/MS analysis", "format": "ADME, Microsome"}, "HCT-116 [3]": {"test_system": "HCT-116", "assay": "Inhibition of colony formation in human HCT-116 cells at 0.01 uM preincubated for 1 hr followed by exposure to 2 Gy gamma irradiation and measured after 1 week by crystal violet staining based […] assay relative to control", "format": "functional", "details": "HCT-116, light or radiation study, time 169 hrs"}, "HCT-116 [4]": {"test_system": "HCT-116", "assay": "Inhibition of colony formation in human HCT-116 cells preincubated for 1 hr followed by exposure to 2 Gy gamma irradiation and measured after 1 week by crystal violet staining based […] assay", "format": "functional, cell-based", "details": "HCT-116, light or radiation study"}, "HCT-116 [5]": {"test_system": "HCT-116", "assay": "Antiproliferative activity against human HCT-116 cells assessed as cell survival at 1 uM incubated for 6 days by MTT assay relative to control", "format": "functional", "details": "HCT-116, 144 h, time 6 day, read-out: Survival"}, "HCT-116 [6]": {"test_system": "HCT-116", "assay": "Antiproliferative activity against human HCT-116 cells assessed as reduction in cell viability incubated for 6 days by MTT assay", "format": "functional, cell-based", "details": "HCT-116, 144 h"}, "HCT-116 [7]": {"test_system": "HCT-116", "assay": "Inhibition of colony formation in human HCT-116 cells assessed as assessed as fold change in IC50 in presence of ionizing radiation", "format": "functional"}, "MCF7 [8]": {"test_system": "MCF7", "assay": "Synergistic antiproliferative activity against human MCF7 cells assessed as fold increase in etoposide IC50 at 200 nM measured after 6 days by MTT assay", "format": "functional", "details": "time 6 day"}, "MCF7 [9]": {"test_system": "MCF7", "assay": "Synergistic antiproliferative activity against human MCF7 cells assessed as combination index at […] measured after 6 days in presence etoposide by MTT assay", "format": "functional", "details": "dose lower 100 µM; time 6 day"}, "SW-620 [10]": {"test_system": "SW-620", "assay": "Synergistic antiproliferative activity against human SW620 cells assessed as fold increase in irinotecan IC50 at 100 nM measured after 6 days by MTT assay", "format": "functional", "details": "time 6 day"}, "SW-620 [11]": {"test_system": "SW-620", "assay": "Synergistic antiproliferative activity against human SW620 cells assessed as fold increase in irinotecan IC50 at 200 nM measured after 6 days by MTT assay", "format": "functional", "details": "time 6 day"}, "HCT-116 [12]": {"test_system": "HCT-116", "assay": "Induction of apoptosis in human HCT-116 cells assessed as viable cells at 2 uM measured after 2 days by AnnexinV-FITC/PI staining based analysis (reference value: 72.8%)", "format": "functional", "details": "HCT-116, 48 h, time 2 day, read-out: Activity"}, "HCT-116 [13]": {"test_system": "HCT-116", "assay": "Induction of apoptosis in human HCT-116 cells assessed as early apoptotic cells at 2 uM measured after 2 days by AnnexinV-FITC/PI staining based analysis (reference value: 14.4%)", "format": "functional", "details": "time 2 day"}, "HCT-116 [14]": {"test_system": "HCT-116", "assay": "Induction of apoptosis in human HCT-116 cells assessed as early apoptotic cells at 4 uM measured after 2 days by AnnexinV-FITC/PI staining based analysis (reference value: 14.4%)", "format": "functional", "details": "time 2 day"}, "HCT-116 [15]": {"test_system": "HCT-116", "assay": "Induction of apoptosis in human HCT-116 cells assessed as late apoptotic cells at 1 uM measured after 2 days by AnnexinV-FITC/PI staining based analysis (reference value: 12.2%)", "format": "functional", "details": "time 2 day"}, "HCT-116 [16]": {"test_system": "HCT-116", "assay": "Induction of apoptosis in human HCT-116 cells assessed as late apoptotic cells at 4 uM measured after 2 days by AnnexinV-FITC/PI staining based analysis (reference value: 12.2%)", "format": "functional", "details": "time 2 day"}, "HCT-116 [17]": {"test_system": "HCT-116", "assay": "Induction of apoptosis in human HCT-116 cells assessed as necrotic cells at 1 uM measured after 2 days by AnnexinV-FITC/PI staining based analysis (reference value: 0.64%)", "format": "functional", "details": "time 2 day"}, "HCT-116 [18]": {"test_system": "HCT-116", "assay": "Induction of apoptosis in human HCT-116 cells assessed as viable cells at 1 uM measured after 2 days in presence of irinotecan by AnnexinV-FITC/PI staining based analysis (reference value: 72.8%)", "format": "functional", "details": "HCT-116, 48 h, time 2 day, read-out: Activity"}, "HCT-116 [19]": {"test_system": "HCT-116", "assay": "Induction of apoptosis in human HCT-116 cells assessed as viable cells at 2 uM measured after 2 days in presence of irinotecan by AnnexinV-FITC/PI staining based analysis (reference value: 72.8%)", "format": "functional", "details": "HCT-116, 48 h, time 2 day, read-out: Activity"}, "HCT-116 [20]": {"test_system": "HCT-116", "assay": "Induction of apoptosis in human HCT-116 cells assessed as early apoptotic cells at 1 uM measured after 2 days in presence of irinotecan by AnnexinV-FITC/PI staining based analysis (reference value: 14.4%)", "format": "functional", "details": "time 2 day"}, "HCT-116 [21]": {"test_system": "HCT-116", "assay": "Induction of apoptosis in human HCT-116 cells assessed as early apoptotic cells at 4 uM measured after 2 days in presence of irinotecan by AnnexinV-FITC/PI staining based analysis (reference value: 14.4%)", "format": "functional", "details": "time 2 day"}, "HCT-116 [22]": {"test_system": "HCT-116", "assay": "Induction of apoptosis in human HCT-116 cells assessed as late apoptotic cells at 1 uM measured after 2 days in presence of irinotecan by AnnexinV-FITC/PI staining based analysis (reference value: 12.2%)", "format": "functional", "details": "time 2 day"}, "HCT-116 [23]": {"test_system": "HCT-116", "assay": "Induction of apoptosis in human HCT-116 cells assessed as late apoptotic cells at 2 uM measured after 2 days in presence of irinotecan by AnnexinV-FITC/PI staining based analysis (reference value: 12.2%)", "format": "functional", "details": "time 2 day"}, "HCT-116 [24]": {"test_system": "HCT-116", "assay": "Induction of apoptosis in human HCT-116 cells assessed as necrotic cells at 2 uM measured after 2 days in presence of irinotecan by AnnexinV-FITC/PI staining based analysis (reference value: 0.64%)", "format": "functional", "details": "time 2 day"}, "HCT-116 [25]": {"test_system": "HCT-116", "assay": "Induction of apoptosis in human HCT-116 cells assessed as necrotic cells at 4 uM measured after 2 days in presence of irinotecan by AnnexinV-FITC/PI staining based analysis (reference value: 0.64%)", "format": "functional", "details": "time 2 day"}, "[26]": {"assay": "Efflux ratio of apparent permeability in human Caco-2 cells", "format": "ADME, cell-based"}, "[27]": {"assay": "Cmax in Balb/C mouse at 10 mg/kg,iv measured upto 48 hrs by LC-MS/MS analysis", "format": "ADME, organism-based", "parameters": "time < 48 hrs, dose 10 mg/kg, route iv", "details": "in vivo"}, "[28]": {"assay": "Cmax in Balb/C mouse at 10 mg/kg,po measured upto 48 hrs by LC-MS/MS analysis", "format": "ADME, organism-based", "parameters": "dose 10 mg/kg, time < 48 hrs, route po", "details": "in vivo"}, "[29]": {"assay": "Tmax in Balb/C mouse at 10 mg/kg,po measured upto 48 hrs by LC-MS/MS analysis", "format": "ADME, organism-based", "details": "in vivo"}, "[30]": {"assay": "Volume of distribution at steady state in Balb/C mouse at 10 mg/kg,po measured upto 48 hrs by LC-MS/MS analysis", "format": "ADME, organism-based", "details": "in vivo"}, "SW-620 [31]": {"test_system": "SW-620", "assay": "Antitumor activity against human SW620 cells xenografted in BALB/c nude mouse model assessed as tumor growth inhibition at 40 mg/kg, po administered once daily for 3 days weekly for 21 days by caliper method", "format": "functional, organism-based", "details": "time 21.0 day"}, "SW-620 [32]": {"test_system": "SW-620", "assay": "Antitumor activity against human SW620 cells xenografted in BALB/c nude mouse model assessed as tumor growth inhibition at 20 mg/kg, po administered once daily for 3 days weekly after irinotecan post treatment for 21 days by caliper method relative to control", "format": "functional", "details": "SW-620, 504 h, time 21 day, read-out: TGI"}, "[33]": {"assay": "Toxicity in BALB/c nude mouse assessed as drug tolerance at 20 to 40 mg/kg, po administered once daily for 3 days weekly after irinotecan post treatment for 21 days in presence of irinotecan", "format": "organism-based", "details": "in vivo, 504 h, dose 20-40 mg/kg, time 21 day"}, "HCT-116 [34]": {"test_system": "HCT-116", "assay": "Induction of DNA damage in human HCT-116 cells assessed as reduction in ATM phosphorylation at S1981 residue at 0.5 to 2 uM measured after 4 hrs by Western blot analysis", "format": "functional, cell-based", "details": "dose 0.5-2 µM"}}, "note": "Active and inactive are the calls of the source. No cut-off for these calls is given here.", "data": [{"smiles": "CC(C)NC(=O)N(C)c1cnc2ccc(-c3ccc(OCCCN4CCCCC4)nc3)cc2n1", "values": [{"measurement": "CLH", "setting": "[1]", "value": 1.8, "unit": "mL/min/g"}, {"measurement": "half-life at 1 µM", "setting": "[2]", "value": 12.8, "unit": "h"}, {"measurement": "inhibition at 0.01 µM", "setting": "HCT-116 [3]", "value": 94.1, "unit": "%"}, {"measurement": "IC50", "setting": "HCT-116 [4]", "value": 1.69, "unit": "nM"}, {"measurement": "viability at 1 µM", "setting": "HCT-116 [5]", "value": "> 83", "unit": "%"}, {"measurement": "IC50", "setting": "HCT-116 [6]", "value": "> 9000", "unit": "nM"}, {"measurement": "fold change (FC)", "setting": "HCT-116 [7]", "value": 750}, {"measurement": "fold change (FC)", "setting": "MCF7 [8]", "value": 5.2}, {"measurement": "CI", "setting": "MCF7 [9]", "value": "<1"}, {"measurement": "fold change (FC)", "setting": "SW-620 [10]", "value": 2.8}, {"measurement": "fold change (FC)", "setting": "SW-620 [11]", "value": 4.5}, {"measurement": "viability at 2 µM", "setting": "HCT-116 [12]", "value": 67.3, "unit": "%"}, {"measurement": "Activity", "setting": "HCT-116 [13]", "value": 17.6, "unit": "%"}, {"measurement": "Activity", "setting": "HCT-116 [14]", "value": 18.1, "unit": "%"}, {"measurement": "Activity", "setting": "HCT-116 [15]", "value": 12.6, "unit": "%"}, {"measurement": "Activity", "setting": "HCT-116 [16]", "value": 13, "unit": "%"}, {"measurement": "Activity", "setting": "HCT-116 [17]", "value": 1.01, "unit": "%"}, {"measurement": "viability at 1 µM", "setting": "HCT-116 [18]", "value": 17.3, "unit": "%"}, {"measurement": "viability at 2 µM", "setting": "HCT-116 [19]", "value": 14, "unit": "%"}, {"measurement": "Activity", "setting": "HCT-116 [20]", "value": 49.9, "unit": "%"}, {"measurement": "Activity", "setting": "HCT-116 [21]", "value": 55.7, "unit": "%"}, {"measurement": "Activity", "setting": "HCT-116 [22]", "value": 30.4, "unit": "%"}, {"measurement": "Activity", "setting": "HCT-116 [23]", "value": 33.1, "unit": "%"}, {"measurement": "Activity", "setting": "HCT-116 [24]", "value": 1.67, "unit": "%"}, {"measurement": "Activity", "setting": "HCT-116 [25]", "value": 1.73, "unit": "%"}, {"measurement": "efflux ratio", "setting": "[26]", "value": 2.37}, {"measurement": "Cmax", "setting": "[27]", "value": 6790, "unit": "ng/mL"}, {"measurement": "Cmax", "setting": "[28]", "value": 10200, "unit": "ng/mL"}, {"measurement": "Tmax", "setting": "[29]", "value": 0.33, "unit": "h"}, {"measurement": "Vdss", "setting": "[30]", "value": 3.52, "unit": "L/kg"}, {"measurement": "Activity", "setting": "SW-620 [31]", "value": "inactive"}, {"measurement": "inhibition in vivo at 20 mg/kg", "setting": "SW-620 [32]", "value": 77.2, "unit": "%"}, {"measurement": "Activity", "setting": "[33]", "value": "Toxic"}, {"measurement": "Activity", "setting": "HCT-116 [34]", "value": "Active"}]}]}
